The record followed here is PubChem BioAssay (NCI).

Values joined by “and” are separate entries in the source; they are usually repeats but may differ in a detail not shown here. Equal values may be shown once.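 Interpolation was linear, between the two tested concentrations surrounding the appropriate level; five concentrations were tested over 48 hours in 96-well plates. Abbreviation: GI50, concentration required for 50% inhibition of growth. At the TGI there is no net growth.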

Common to all, as to experiment: DTP human tumour cell line panel, 48 h
Assay [1] concerns M14 melanoma.
For assay [2], the system named is A549 NSCLC.
Assay [3] deals with NCI-H460 lung.
Assay [4] has as its system OVCAR-3 ovarian.
Assay [5] has as its system SN12C renal.
Assay [6] concerns NCI-H23 lung.
Assay [7] concerns MALME-3M melanoma.
Assay [8] relates to LOX IMVI melanoma.
The subject of assay [9] is OVCAR-4 ovarian.
The test system of assay [10] is UACC-257 melanoma.

Regarding `CCCCCCCCCCCC/C=C\CC[C@@H](O)[C@H](O)CC[C@H](O)[C@@H]1CC[C@@H](CCCCCCCC2=C[C@H](C)OC2=O)O1`, the concentration for total growth inhibition (TGI) in assay [1] is 46.8 µM; in assay [2], 23 µM; in assay [3] it was 26.6 µM; in [4], 6.64 µM and 18.7 µM; in [5] it was 31 µM; in assay [6] it was 29.9 µM. Also, the total growth inhibition concentration (TGI) in assay [7] is 31.2 µM; in assay [8] it was 4.84 µM and 32.3 µM; in [9], 26.8 µM; in assay [10], 4.21 µM and 19.6 µM. In addition, the GI50 in assay [2] is 3.36 µM; in [4], 0.434 µM; in assay [5], 13 µM; in assay [6], 2.19 µM; in [8], 3.55 µM; in assay [10], 1.94 µM.
With `Cc1cc(NC(=O)NCc2ccc(N3C(N)=NC(N)=NC3(C)C)cc2)ccc1S(=O)(=O)F`, the GI50 in assay [1] is 1.51 µM; in [2], 0.528 µM; in assay [3], 0.252 µM; in assay [4], 8.4 µM; in [5] it was 0.833 µM; in [6] it was 4.29 µM. Further, the GI50 is 29 µM in assay [7], 0.824 µM in assay [8], 9.31 µM in [9] and 33.6 µM in assay [10]. The total growth inhibition concentration (TGI) was above 100 µM in assay [1]; above 32.1 µM in assay [2]; above 75.6 µM in assay [3]; above 81.9 µM in [4]; above 100 µM in [5]; above 100 µM in assay [6]. For the same compound, the TGI in assay [7] was 98.5 µM; in assay [8] it was above 100 µM; in assay [9], above 100 µM; in assay [10], above 100 µM.
Regarding `[O]=[Sn]([CH]1CCCCC1)[CH]1CCCCC1`, the concentration for 50% growth inhibition (GI50) is 0.239 µM in [1]; 1.4 µM in assay [2]; 0.389 µM in assay [3]; 0.203 µM in assay [4]; 0.315 µM in assay [5]; 0.198 µM in assay [6]. Further, the 50% growth inhibitory concentration (GI50) in [7] is 0.173 µM; in assay [8] it was 0.123 µM; in assay [9] it was 0.342 µM; in assay [10], 0.133 µM. Further, the TGI was 0.677 µM in assay [1]; 2.89 µM in assay [2]; 1.43 µM in assay [3]; 0.549 µM in [4]; 1.23 µM in assay [5]; 0.591 µM in assay [6]. The TGI in assay [7] turned out to be 0.555 µM; in [8], 0.297 µM; in assay [9], 1.46 µM; in assay [10] it was 0.384 µM.
Consider `Nc1ccc(CC[C@H]2CCC/C=C/[C@@H]3C[C@H](O)C[C@H]3[C@H](O)/C=C/C(=O)O2)cc1`, for which the concentration for 50% growth inhibition (GI50) in assay [1] was 0.0337 µM; in assay [2] it was 0.0437 µM; in [3] it was 0.043 µM; in [4], 0.0282 µM; in [5] it was 0.0639 µM; in [6], 0.0379 µM. Besides, the 50% growth inhibitory concentration (GI50) is 0.0731 µM in assay [7], 0.0231 µM in [8], 0.0339 µM in assay [9] and 0.0565 µM in assay [10]. For the same compound, the TGI in [1] is 10.7 µM; in [2], above 100 µM; in [3] it was above 100 µM; in assay [4], 0.0769 µM; in [5] it was above 100 µM; in assay [6] it was 1.06 µM. The total growth inhibition concentration (TGI) in assay [7] worked out at 0.543 µM; in assay [8], 0.0567 µM; in assay [9], 2.73 µM; in [10] it was 37.1 µM.
For the compound `O=c1c(I)c[nH]cc1I`, the GI50 in assay [1], in [2], in assay [3], in [4], in assay [5] and in assay [6] was above 100 µM in each case. For the same compound, the GI50 in assay [7], in assay [8], in assay [9] and in assay [10] was above 100 µM throughout. Besides, the concentration for total growth inhibition (TGI) in assay [1], in [2], in assay [3], in assay [4], in assay [5] and in [6] was above 100 µM each time. Further, the concentration for total growth inhibition (TGI) in assay [7], in [8], in assay [9] and in [10] was above 100 µM in each case.
For the compound `Cc1cc(N2CCC(N3CCCC3)CC2)nc(/N=C(\N)Nc2ccc(Cl)c(Cl)c2)n1`, the GI50 in assay [1] is 1.81 µM; in assay [2], 1.78 µM; in [3] it was 1.89 µM; in [4] it was 1.72 µM; in assay [5], 2.7 µM; in assay [6] it was 2.12 µM. Also, the GI50 in assay [7] is 2 µM; in [8], 1.61 µM; in assay [9] it was 2.02 µM; in assay [10] it was 1.92 µM. Further, the concentration for total growth inhibition (TGI) is 3.67 µM in assay [1]; 3.42 µM in assay [2]; 3.67 µM in assay [3]; 3.26 µM in assay [4]; 10.9 µM in assay [5]; 6.61 µM in [6]. Besides, the total growth inhibition concentration (TGI) is 3.82 µM in assay [7], 3.35 µM in assay [8], 3.99 µM in [9] and 3.54 µM in assay [10].
In the case of `Cc1ccc(-c2nc(NCCOCCOCCN)nc(N3CCN(c4ccccn4)CC3)n2)cc1`, the GI50 in assay [1] is 5.52 µM; in assay [2], 17.1 µM; in assay [3], 13.9 µM; in [4], 16.9 µM; in assay [5], 14 µM; in assay [6], 16.4 µM. Further, the GI50 in assay [7] was 15.2 µM; in [8], 8.82 µM; in assay [9], 14.7 µM; in assay [10], 6.85 µM. Also, the concentration for total growth inhibition (TGI) in [1] was found to be 11.9 µM; in assay [2], 36.3 µM; in assay [3], 29.9 µM; in assay [4], 31.2 µM; in assay [5] it was 29.5 µM; in [6] it was 32 µM. For the same compound, the total growth inhibition concentration (TGI) was 33.7 µM in [7], 25.9 µM in assay [8], 29.3 µM in [9] and 15.5 µM in assay [10].
With `O=[N+]([O-])c1cccc(/C=N/Nc2ccc3ccccc3n2)c1O`, the TGI in [1] was 5.32 µM; in [2], above 70.8 µM; in [3], 7.21 µM; in assay [4], 0.632 µM; in assay [5], 16.1 µM; in [6], 12.1 µM. Besides, the TGI in assay [7] was 11.3 µM; in [8], 12.7 µM; in [9] it was above 39.6 µM; in [10], 7.67 µM.
On to `CNC(=O)CCN1CCN(CC/C=C2\c3ccccc3Sc3ccc(Cl)cc32)CC1`, for which the GI50 in assay [1] is 2.1 µM; in [2] it was 10.7 µM; in assay [3] it was 7.02 µM; in assay [4], 11.8 µM; in [5] it was 12.1 µM; in assay [6], 14.4 µM. Besides, the GI50 in assay [7] is 2.59 µM; in [8], 5.15 µM; in [9], 13.2 µM; in [10], 1.53 µM. Also, the concentration for total growth inhibition (TGI) in assay [1] stood at 4.4 µM; in assay [2] it was 28.5 µM; in [3], 21.6 µM; in assay [4], 27 µM; in assay [5] it was 26.6 µM; in assay [6] it was 32.5 µM. For the same compound, the TGI in assay [7] worked out at 6.16 µM; in [8], 18.9 µM; in assay [9], 28.2 µM; in assay [10], 3.06 µM.
As to `CCSC[C@@H]1C[C@](O)(c2ccccc2)[C@@H](c2ccccc2)O1`, the GI50 is above 90.1 µM in [1]; 82.9 µM in assay [2]; above 76.1 µM in assay [3]; 70.1 µM in assay [4]; above 94.5 µM in [5]; 79.9 µM in assay [6]. Moreover, the GI50 is above 100 µM in assay [7], above 94.2 µM in assay [8], 66.9 µM in assay [9] and above 82.3 µM in [10]. The TGI in assay [1], in [2], in assay [3], in assay [4], in assay [5] and in assay [6] was above 100 µM in each case. Also, the total growth inhibition concentration (TGI) in assay [7], in [8], in [9] and in assay [10] was above 100 µM each time.
For `Cn1c(=O)c(-c2ccccc2Cl)cc2cnc(NC3CCOCC3)nc21`, the GI50 is 5.66 µM in assay [1]; 18.2 µM in assay [2]; 11.1 µM in assay [3]; above 22.7 µM in assay [4]; 8.05 µM in [5]; 18.3 µM in assay [6]. The GI50 was 7.08 µM in assay [7], 5.49 µM in [8], 10.4 µM in [9] and 14.8 µM in assay [10]. The concentration for total growth inhibition (TGI) in assay [1], in assay [2], in [3], in assay [4], in assay [5] and in assay [6] was above 25 µM throughout. Besides, the concentration for total growth inhibition (TGI) in [7] is above 22.3 µM; in assay [8] it was above 25 µM; in [9], above 25 µM; in [10] it was above 25 µM.
Take `Cc1cc(Cl)ccc1N=C1NC(=O)C(CC(=O)Nc2cccc(Cl)c2)S1` (stereo not given): the TGI in assay [1], in [2], in assay [3], in [4], in assay [5] and in assay [6] was above 100 µM each time. Moreover, the TGI in assay [7], in assay [8], in [9] and in assay [10] was above 100 µM in each case.
With `CC[C@H](C)[C@H](NC(=O)C12C3C4C1C1C2C3C41NC)C(=O)N(C)[C@H](C[C@@H](OC(C)=O)c1nc(C(=O)N[C@@H](Cc2ccccc2)C[C@H](C)C(=O)OC)cs1)C(C)C` (stereo not given in full), the GI50 is 0.42 µM in assay [1]; 4.61 µM in assay [2]; 0.617 µM in [3]; 0.0872 µM in [4]; 0.896 µM in assay [5]; 0.705 µM in assay [6]. Also, the results for the GI50 in assay [8], in assay [9] and in [10] were 0.493 µM, 1.75 µM and 0.655 µM, respectively. Further, the total growth inhibition concentration (TGI) is 5.54 µM in assay [1]; above 14.3 µM in [2]; above 14.3 µM in assay [3]; 1.02 µM in assay [4]; above 14.3 µM in assay [5]; above 14.3 µM in assay [6]. Moreover, the TGI in assay [7], in assay [8], in assay [9] and in assay [10] was above 14.3 µM throughout.
As to `OCCCN=C1CCCCC1`, the TGI in assay [1], in [2], in [3], in assay [4], in [5] and in assay [6] was above 100 µM in each case. The TGI in [7], in [8], in [9] and in [10] was above 100 µM each time.
For `COC1C(OC(=O)c2ccc(C)[nH]2)C(O)C(Oc2ccc3c(O)c(NC(=O)c4ccc(O)c(CC=C(C)C)c4)c(=O)oc3c2Cl)OC1(C)C` (stereo not given), the TGI in assay [1] is 32.2 µM; in assay [2] it was 91.7 µM; in assay [3], 69.5 µM; in [4], 43.6 µM; in assay [5] it was 53.2 µM; in assay [6], 45.5 µM. The TGI in assay [7] is 34 µM; in assay [8], 38.4 µM; in [9], 99.6 µM; in assay [10], above 100 µM.
Consider `Cc1cc(N(CCC#N)CCC#N)ccc1/C=C(\NC(=O)/C=C/c1ccccc1)C(=O)Nc1ccccc1Cl`, for which the TGI in [1], in [2], in [3], in assay [4], in assay [5] and in [6] was above 100 µM in each case. For the same compound, the TGI in [7], in assay [8], in assay [9] and in assay [10] was above 100 µM in each case.
`COc1cc2c(oc(=O)c3c4occc4cc(OC)c23)c2cccc(O)c12`: the total growth inhibition concentration (TGI) in assay [1], in [2], in assay [3], in [4], in [5] and in assay [6] was above 100 µM in each case. Further, the concentration for total growth inhibition (TGI) in assay [7], in [8], in assay [9] and in [10] was above 100 µM each time.
